The record followed here is the NIST ThermoML archive (doi:10.1016/j.jct.2004.11.015).

Numbers after ± are expanded uncertainties.

The conditions of series [1]: Liquid; for mass density: 101.33 kPa.
Series [2] is described as follows: refractive index (Na D-line) (dimensionless). The settings on record: 101.33 kPa, Liquid, Abbe refractometer.

For `CC(=O)CC(C)C` [4-methylpentan-2-one], the mass density in series [1] (298.15 K) is listed as 796.3 ± 1.2 kg/m3. The “vapor or sublimation pressure” value in series [1] (387.15 K) is 94.7 ± 9.6 kPa. For the same molecule, in series [2] (298.15 K), the refractive index worked out at 1.3936 ± 0.0007.
Turning to `ClCC1CO1` (centres undefined) [1-chloro-2,3-epoxypropane], the mass density in series [1] (298.15 K) is 1174.6 ± 2 kg/m3. Besides, the “vapor or sublimation pressure” value in series [1] (389.15 K) was 94.7 ± 9.6 kPa. For the same molecule, the refractive index in series [2] (298.15 K) amounted to 1.4358 ± 0.0007.
Consider `CCCCCO` [pentan-1-ol], for which the mass density in series [1] (298.15 K) came to 815 ± 1 kg/m3. Also, the “vapor or sublimation pressure” value in series [1] (400.15 K) came out at 94.7 ± 9.6 kPa. Further, in series [2] (298.15 K), the refractive index worked out at 1.4085 ± 0.0007.
As for `C=CC#N` [acrylonitrile], the mass density in series [1] (298.15 K) is 800.4 ± 1.3 kg/m3. In series [1] (348.85 K), the “vapor or sublimation pressure” value is 94.7 ± 9.6 kPa. For the same molecule, in series [2] (298.15 K), the refractive index is 1.3888 ± 0.0007.
For the molecule `CC(=O)N(C)C` [N,N-dimethylethanamide], the mass density in series [1] (298.15 K) came to 936.3 ± 1.5 kg/m3. Moreover, the “vapor or sublimation pressure” value in series [1] (415.35 K) is reported as 94.7 ± 9.6 kPa. Moreover, in series [2] (298.15 K), the refractive index is listed as 1.4356 ± 0.0007.
In the case of `CC(=O)c1ccccc1` [acetophenone], in series [1] (293.15 K), the mass density was 1028.1 ± 1.3 kg/m3. For the same molecule, the “vapor or sublimation pressure” value in series [1] (472.25 K) came to 94.7 ± 9.6 kPa. For the same molecule, in series [2] (293.15 K), the refractive index amounted to 1.5342 ± 0.0007.
Turning to `CCc1ccccc1` [ethylbenzene], the mass density in series [1] (298.15 K) was 862.5 ± 1.1 kg/m3. Besides, the “vapor or sublimation pressure” value in series [1] (407.05 K) was 94.7 ± 9.6 kPa. In addition, in series [2] (298.15 K), the refractive index is 1.4932 ± 0.0007.
As to `Cc1ccccn1` [2-methylpyridine], in series [1] (298.15 K), the mass density is 939.8 ± 1.5 kg/m3. In series [1] (398.05 K), the “vapor or sublimation pressure” value is reported as 94.7 ± 9.6 kPa. Further, in series [2] (298.15 K), the refractive index came to 1.4984 ± 0.0007.

The term mass density denotes the mass of a sample divided by its volume. For orientation: vapor or sublimation pressure means the pressure of vapour in equilibrium with the condensed phase. A word on the refractive index: it is the speed of light in vacuum divided by its phase velocity in the sample.
